Patent US20210379068A1, “METHODS AND MATERIALS FOR TREATING NEUROPSYCHIATRIC DISORDERS” (Mayo Foundation for Medical Education and Research, priority 2018, published 2021)
“Also recorded” adds a separate entry of the source.

How the values were obtained:
Assay type in all cases: in vivo, mouse
INK-ATTAC mice = experiment: Stone's T-maze, INK-ATTAC mice treated with AP20187; conditions: chow/HFD INK-ATTAC mice; AP20187 vs vehicle
Procedure: (§1) INK-ATTAC mice were injected intraperitoneally (i.p.) with AP20187 (10 mg/kg) or vehicle for 3 days every 2 weeks for a total of 8-10 weeks.
A water-motivated version of the Stone's T-maze was used to measure parameters of cognition. A straight run (for pre-training) or Stone's T-maze were placed into a steel pan filled with water to a depth of approximately 3 cm so that half the height of the interior walls of the maze were under water. The ceilings of both the straight run and maze were covered with clear acrylic to prevent mice from rearing out of the water. These dimensions created a situation that enables the mice to maintain contact with the floor while keeping their heads above water. The mice were placed into a start box and were pushed into the maze using a sliding panel. At the end of the straight run or maze there was a goal box that contains a ramp to a dry floor, which allows the mice to escape from the water upon successful completion of the straight run or maze. On day one, mice underwent straight run training to establish the concept that moving forward allows them to escape the water by reaching a water-free goal box. Successful completion of this phase requires the mice to reach the goal box in 10 seconds or faster in 8 out of 10 trials. […] Maze training commenced the following day. Mice had to complete 9 maze acquisition trials in a single day. […]

INK-ATTAC;db/db mice = experiment: Open field test, INK-ATTAC;db/db mice treated with AP20187; conditions: AP20187 vs vehicle, 2 months
Procedure: as §1
(§2) Locomotor activity and anxiety-like behavior of mice were assessed in sound-insulated, rectangular activity chambers (Med Associates Inc., St Albans, Vt., USA: W×L×D=27 cm×27 cm×20 cm with continually running fans, infrared lasers, and sensors). Beam breaks were assessed in 2-minute bins over 30 minutes, converted automatically to current mouse location and distance travelled (cm), and recorded on a computer with Med-PC software Version 4.0. Before the test, mice were acclimatized to the room for 1-1.5 hours before being introduced into the chambers. Mice were habituated for 5 minutes in the Open Field chamber (without recording) then placed for another 5 minutes in the home cage. Afterwards, mice were introduced back to the chambers and all mouse movements were recorded for 30 minutes. Anxiety was quantified by the distance mice travelled in the central 25% of the chamber (zone 1) as a function of the total distance mice travelled and by frequencies of entries into zone 1.

db/db mice = experiment: Open field test, off-target effects of AP in db/db mice; conditions: AP 10 mg/kg i.p. 3 days every 2 weeks for 8 weeks
Procedure: For off target effect measurements db/db and HDF mice (fed with HFD for 2 months prior treatment) were injected intraperitoneally (i.p.) with […] at 10 mg/kg or vehicle for 3 days every 2 weeks for 8 weeks.
as §2

[1] = test system: senescent cells in the amygdala; experiment: Telomere associated foci (TAF) in basomedial layer of the amygdala, INK-ATTAC mice; conditions: HFD INK-ATTAC mice, AP20187 vs vehicle
Procedure: as §1
(§3) Paraffin sections were deparaffinized with Histoclear and hydrated in an ethanol gradient followed by water and PBS. Antigen was retrieved by incubation in 0.01M citrate buffer (pH 6.0) at 95° C. for 10 minutes. Slides were placed in blocking buffer (1:60 normal goat serum [S-1000, Vector Laboratories] in 0.1% BSA/PBS) for 60 minutes at room temperature. […] Primary antibodies used (Table 2) were diluted in blocking buffer and applied overnight at 4° C. The next day, slides were washed 3 times with PBS and incubated for 30 minutes with secondary goat, anti-rabbit antibody (1:200; Vector Laboratories #BA-1000) for TAF staining or for 60 minutes with secondary Alexa antibody (Table 1). For TAF staining, Fluorescein-Avidin in PBS (1:500; #A-2011, Vector Lab) was applied to each sample for 20 minutes. Slides were washed 3 times in PBS, which was followed by FISH for TAF detection. […]
(§4) A single, 3 μm-thick section per mouse was used for TAF staining, while for Dcx and Plin2 staining was performed on three 10 μm-thick sections 80 μm-apart. To quantify periventricular lipid accumulation 10-30 images in the periventricular region were taken using the DM5500 widefield fluorescence microscope from Leica with a 10× (for frequency of periventricular glia) or ×40 (for ALISE phenotype of ependymal cells) objective lens. Number of Plin2-positive cells (for frequency of ALISE-positive periventricular glia) or area of Plin2-positive vesicles (for ALISE phenotype of ependymal cells) was assessed using ImageJ software. For identity assessment of Plin2+ cells, 10 μm-thick sections were stained with combination of antibodies for Iba1 (secondary antibody conjugated with Alexa Fluor 488), Plin2 (secondary antibody conjugated with Alexa Fluor 594), and Vimentin (secondary antibody conjugated with Alexa Fluor 647) and quantified for frequency of Plin2+ astrocytes (Iba1−, Vim+) and microglia (Iba1+) in the periventricular region. […]

[2] = test system: senescent cells in the hypothalamus; experiment: TAF in hypothalamus close to the 3rd ventricle, INK-ATTAC mice; conditions: HFD INK-ATTAC mice, AP20187 vs vehicle
Procedure: as §1
Paraffin sections were deparaffinized with Histoclear and hydrated in an ethanol gradient followed by water and PBS. Antigen was retrieved by incubation in 0.01M citrate buffer (pH 6.0) at 95° C. for 10 minutes. Slides were placed in blocking buffer (1:60 normal goat serum [S-1000, Vector Laboratories] in 0.1% BSA/PBS) for 60 minutes at room temperature. […] Primary antibodies used (Table 2) were diluted in blocking buffer and applied overnight at 4° C. The next day, slides were washed 3 times with PBS and incubated for 30 minutes with secondary goat, anti-rabbit antibody (1:200; Vector Laboratories #BA-1000) for TAF staining or for 60 minutes with secondary Alexa antibody (Table 1). For TAF staining, Fluorescein-Avidin in PBS (1:500; #A-2011, Vector Lab) was applied to each sample for 20 minutes. Slides were washed 3 times in PBS, which was followed by FISH for TAF detection. Briefly, tissues were crosslinked with 4% paraformaldehyde for 20 minutes and dehydrated in graded ethanol. Sections were denatured for 10 minutes at 80° C. in hybridization buffer (70% formamide (Sigma), 25 mM MgCl2, 0.1 M Tris (pH 7.2), and 5% blocking reagent [Roche]) containing 2.5 μg ml^−1 Cy-3-labelled telomere-specific (CCCTAA) peptide nucleic acid probe (Panagene), followed by hybridization for 2 hour at room temperature in the dark. Slides were washed twice with 70% formamide in 2×SSC for 15 minutes, followed by washes in 2×SSC and PBS for 10 minutes. Sections were mounted in Vectashield, DAPI-containing mounting media and imaged.
A single, 3 μm-thick section per mouse was used for TAF staining, while for Dcx and Plin2 staining was performed on three 10 μm-thick sections 80 μm-apart. To quantify periventricular lipid accumulation 10-30 images in the periventricular region were taken using the DM5500 widefield fluorescence microscope from Leica with a 10× (for frequency of periventricular glia) or ×40 (for ALISE phenotype of ependymal cells) objective lens. Number of Plin2-positive cells (for frequency of ALISE-positive periventricular glia) or area of Plin2-positive vesicles (for ALISE phenotype of ependymal cells) was assessed using ImageJ software. For identity assessment of Plin2+ cells, 10 μm-thick sections were stained with combination of antibodies for Iba1 (secondary antibody conjugated with Alexa Fluor 488), Plin2 (secondary antibody conjugated with Alexa Fluor 594), and Vimentin (secondary antibody conjugated with Alexa Fluor 647) and quantified for frequency of Plin2+ astrocytes (Iba1−, Vim+) and microglia (Iba1+) in the periventricular region. A separate staining for Plin2 (secondary antibody conjugated with Alexa Fluor 594) and NeuN (secondary antibody conjugated with Alexa Fluor 647) was used to determine frequency of Plin2+ neurons in periventricular region. For TAF quantification in depth Z stacking was used (images were captured as stacks separated by 0.4 μm with ×63 objective) followed by ImageJ analysis.

[3] = test system: Plin2+ periventricular glia; experiment: Periventricular Plin2+ and TAF-positive cells (lateral ventricle), HFD INK-ATTAC mice; conditions: AP20187 vs vehicle
Procedure: as §1, §3, §4

CC[C@H](C(=O)N1CCCC[C@H]1C(=O)O[C@H](CCc1ccc(OC)c(OC)c1)c1cccc(OCC(=O)NCC(CNC(=O)COc2cccc([C@@H](CCc3ccc(OC)c(OC)c3)OC(=O)[C@@H]3CCCCN3C(=O)[C@@H](CC)c3cc(OC)c(OC)c(OC)c3)c2)CN(C)C)c1)c1cc(OC)c(OC)c(OC)c1 [AP]
short-term memory (Stone's maze: time to finish, frequency of errors) (INK-ATTAC mice): not affected; also recorded: not altered | anxiety-like behavior: distance travelled in the central area, open field (INK-ATTAC;db/db mice): significantly reduced anxiety-like behavior | number of entries into the central area, open field (INK-ATTAC;db/db mice): not significantly increased | total distance travelled (activity), 30 minute open field (INK-ATTAC;db/db mice): not affected; also recorded: did not alter | anxiety-like behavior: distance travelled in the central area, open field (INK-ATTAC;db/db mice; listed as AP20187): significant difference | anxiety-like behavior by open field test, off-target control (db/db mice): no difference; also recorded: No off-target effects | % of NeuN-pos cells with 2 or more TAF (TAF positive neurons), basomedial layer of the amygdala [1]: significant decrease | mean number of TAF in NeuN-pos cells, basomedial layer of the amygdala [1]: significantly reduced | % of NeuN-pos cells with 2 or more TAF (TAF positive neurons), basomedial layer of the amygdala ([1]; listed as AP20187): significantly reduced | % of NeuN-neg cells with 2 or more TAF, hypothalamus close to the 3rd ventricle [2]: significant decrease | % of NeuN-pos cells with 2 or more TAF, hypothalamus close to the 3rd ventricle [2]: significant decrease | mean number of TAF in NeuN-neg cells, hypothalamus close to the 3rd ventricle [2]: significantly reduced | mean number of TAF in NeuN-pos cells, hypothalamus close to the 3rd ventricle [2]: significantly reduced | % of NeuN-neg cells with 2 or more TAF, hypothalamus close to the 3rd ventricle ([2]; listed as AP20187): significantly reduced | % of NeuN-pos cells with 2 or more TAF, hypothalamus close to the 3rd ventricle ([2]; listed as AP20187): significantly reduced | Plin2+ cells (cells containing lipid droplets) in the periventricular area [3]: significant reduction | cells bearing senescent markers (NeuN negative, TAF-positive cells) in the periventricular region [3]: significant reduction | Plin2+ cells (cells containing lipid droplets) in the periventricular area ([3]; listed as AP20187): reduced lipid droplets
